Measurements as given in patent EP4707275A1, “NOVEL COMPOUND COMPRISING N-METHYLPIPERAZINE ETHANOL CARBAMATE STRUCTURE AND USE THEREOF” (Korea Institute of Radiological & Medical Sciences, priority 2023, dated 2024).

Key:
[1] = tested on: radiation-induced pulmonary fibrosis; assay: Inhibitory effect on radiation-induced pulmonary fibrosis in mice (Micro-CT, H&E and Masson's Trichrome staining); format: in vivo, C57BL/6 mice; conditions: 2 weeks after radiation exposure (SBRT 90 Gy), oral, nintedanib 60 mg/kg once daily, vs untreated group
Method: One hour before stereotactic body radiation therapy (SBRT; 90 Gy, 4 mm collimator), DCTP and nintedanib, an FDA-approved drug known to inhibit pulmonary fibrosis, were orally administered to seven-week-old male C57BL/6 mice. The degree of pulmonary fibrosis and the inhibitory effect on radiation-induced lung injury were observed two weeks after radiation exposure. The DCTP drug was administered at a dose of 30 mg/kg, and nintedanib was administered once daily (o.d.) at a dose of 60 mg/kg. In addition, to analyze the degree of inflammatory response and the degree of fibrosis two weeks after radiation exposure, H&E staining and Masson's Trichrome staining were performed, and the results are shown in FIG. 5. One hour prior to stereotactic body radiation therapy (SBRT; 90 Gy, 4 mm collimator), PXDP and nintedanib, an FDA-approved drug known to inhibit pulmonary fibrosis, were orally administered to seven-week-old male C57BL/6 mice. The degree of pulmonary fibrosis and the inhibitory effect on radiation-induced lung injury were observed two weeks after radiation exposure. The PXDP drug was administered at a dose of 100 mg/kg, and nintedanib was administered once daily (o.d.) at a dose of 60 mg/kg. To analyze the degree of inflammatory response and the degree of fibrosis 2 weeks after radiation exposure, H&E staining and Masson's Trichrome staining were performed, and the results are shown in FIG. 11.

[2] = tested on: idiopathic pulmonary fibrosis induced by bleomycin; assay: Inhibitory effect on idiopathic pulmonary fibrosis induced by bleomycin in mice (Micro-CT, H&E and Masson's Trichrome staining, survival); format: in vivo, C57BL/6 mice; conditions: oral once daily for two weeks from day 14, nintedanib 60 mg/kg, vs untreated group; for degree of fibrosis (Micro-CT imaging): 4 weeks after bleomycin 1.5 U/kg; for degree of inflammation and fibrosis (H&E and Masson's Trichrome staining) / survival rate: bleomycin 1.5 U/kg; for survival rate: Example 5, FIG. 9
Method: Each drug was administered starting 14 days after the administration of bleomycin. The drug was orally administered at a dose of 20 mg/kg once daily for two weeks (a total of 13 administrations). The control drug, nintedanib, was administered at a dose of 60 mg/kg, and the co-administration group was orally administered nintedanib (60 mg/kg) together with DCTP (20 mg/kg) once daily for two weeks (a total of 13 administrations).
The results of H&E and Masson's Trichrome staining performed to evaluate the degree of inflammation and fibrosis are shown in FIG. 3.
Each drug was administered starting 14 days after the administration of bleomycin. Nintedanib and PXDP were each orally administered at a dose of 60 mg/kg once daily for two weeks (a total of 13 administrations), and the group treated with the combination was orally administered nintedanib (60 mg/kg) together with PXDP (60 mg/kg) once daily for two weeks (a total of 13 administrations).
The results of H&E and Masson's Trichrome staining performed to evaluate the degree of inflammation and fibrosis are shown in FIG. 8.
In addition, the mouse survival rate was compared in FIG. 9.

[3] = Example 3, FIG. 5, DCTP 30 mg/kg
[4] = Example 6, FIG. 10, PXDP 100 mg/kg
[5] = Example 6, FIG. 11, PXDP 100 mg/kg
[6] = Example 5, FIG. 7, PXDP 60 mg/kg
[7] = Example 5, FIG. 8, PXDP 60 mg/kg

COc1cc2ncnc(N(C(=O)OCCN3CCN(C)CC3)c3ccc(F)c(Cl)c3)c2cc1NC(=O)/C=C/CN1CCCCC1 [DCTP, 2-(4-methylpiperazin-1-yl)ethyl (E)-(3-chloro-4-fluorophenyl)(7-methoxy-6-(4-(piperidin-1-yl)but-2-enamido)quinazolin-4-yl)carbamate]
degree of inflammation and degree of fibrosis (H&E and Masson's Trichrome staining) [1, 3]: reduction in fibrosis and inflammation in the lungs

CN1CCN(CCOC(=O)N(Cc2ccc(C(F)(F)F)nc2)c2ccc(Cc3c[nH]c4ncc(Cl)cc34)cn2)CC1 [PXDP, 2-(4-methylpiperazin-1-yl)ethyl (5-((5-chloro-1H-pyrrolo[2,3-b]pyridin-3-yl)methyl)pyridin-2-yl)((6-(trifluoromethyl)pyridin-3-yl)methyl)carbamate]
degree of fibrosis (Micro-CT imaging) [1, 4]: reduction in the degree of fibrosis | degree of fibrosis (Micro-CT imaging) ([1]; Example 6, FIG. 10, PXDP 100 mg/kg, listed as PXPD): superior to that of nintedanib | degree of inflammation and degree of fibrosis (H&E and Masson's Trichrome staining) [1, 5]: alleviation of fibrosis and inflammation in the lungs | degree of fibrosis (Micro-CT imaging) [2, 6]: reduction in the degree of fibrosis | degree of inflammation and fibrosis (H&E and Masson's Trichrome staining) [2, 7]: alleviation of pulmonary fibrosis and inflammation | survival rate ([2]; PXDP 60 mg/kg): survival rate increased

COC(=O)c1ccc2c(c1)NC(=O)/C2=C(\Nc1ccc(N(C)C(=O)CN2CCN(C)CC2)cc1)c1ccccc1 [nintedanib]
degree of fibrosis (Micro-CT imaging) ([1]; Example 3, FIG. 4, DCTP 30 mg/kg): reduction in the degree of fibrosis | degree of inflammation and degree of fibrosis (H&E and Masson's Trichrome staining) [1, 3]: reduction in fibrosis and inflammation in the lungs | degree of fibrosis (Micro-CT imaging) [1, 4]: reduction in the degree of fibrosis | degree of inflammation and degree of fibrosis (H&E and Masson's Trichrome staining) [1, 5]: alleviation of fibrosis and inflammation in the lungs | degree of fibrosis (Micro-CT imaging) ([2]; Example 2, FIG. 2, DCTP 20 mg/kg): reduction in the degree of fibrosis | degree of inflammation and fibrosis (H&E and Masson's Trichrome staining) ([2]; Example 2, FIG. 3, DCTP 20 mg/kg): alleviation of pulmonary fibrosis and inflammation | degree of fibrosis (Micro-CT imaging) [2, 6]: reduction in the degree of fibrosis | degree of inflammation and fibrosis (H&E and Masson's Trichrome staining) [2, 7]: alleviation of pulmonary fibrosis and inflammation | survival rate ([2]; PXDP 60 mg/kg): survival rate increased
